This note sets out measurements from publication doi:10.1101/2024.06.05.597555v1 (biorxiv, 2024).

For data set [1], the target named is T1, NS2B(H)-NS3pro (DENV-2 NS2B-NS3 protease) (Dengue virus 2 Thailand/NGS-C/1944, UniProt P14340).
T1 sequence (P14340 1394-1433 limits assumed): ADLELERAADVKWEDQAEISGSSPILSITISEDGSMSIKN
T1 sequence (P14340 1476-1660 limits assumed): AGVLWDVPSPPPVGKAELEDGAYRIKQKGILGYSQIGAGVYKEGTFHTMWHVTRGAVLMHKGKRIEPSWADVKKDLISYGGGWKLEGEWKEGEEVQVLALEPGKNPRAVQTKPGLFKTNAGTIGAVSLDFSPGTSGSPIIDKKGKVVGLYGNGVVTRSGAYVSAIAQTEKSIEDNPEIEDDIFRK
The conditions noted are these: read-out: IC50 (C7.5-HEPES AMC); AMC substrate, HEPES pH 7.5, CHAPS; inhibitor.

Data set [2] concerns the target T2, DENV2proHeLa NS2B-NS3 protease (Dengue virus 2 Thailand/16681/84, UniProt P29990). In words: cell-based. Details: species or system DENV2proHeLa (HeLa). The conditions noted are these: HeLa, read-out: % inhibition.
In data set [3] the target is T2, DENV2proHeLa NS2B-NS3 protease. In words: cell-based. Also noted: species or system DENV2proHeLa (HeLa).
The target in data set [4] is T1, NS2B(H)-NS3pro (DENV-2 NS2B-NS3 protease). The data set can be described thus: biochemical. Conditions: read-out: % inhibition.
The nature of the next data set: in vitro. Details: species or system DENV2proHeLa (HeLa). Conditions: human, denv2prohela cells.

The term IC50 denotes the point on the concentration scale where inhibition reaches its midpoint. Broadly, the inhibition is the drop in the measured response relative to a control, in per cent. By EC50 is commonly meant the concentration needed to bring the measured effect to its halfway point. Low readings indicate an effect from little substance, high ones a need for much substance. As usually defined, the CC50 is the concentration that lowers cell viability or growth by half. Lower therefore signals harm at low concentration.

The structures appear in SMILES notation.

T2 sequence (P29990 1476-2093 limits assumed): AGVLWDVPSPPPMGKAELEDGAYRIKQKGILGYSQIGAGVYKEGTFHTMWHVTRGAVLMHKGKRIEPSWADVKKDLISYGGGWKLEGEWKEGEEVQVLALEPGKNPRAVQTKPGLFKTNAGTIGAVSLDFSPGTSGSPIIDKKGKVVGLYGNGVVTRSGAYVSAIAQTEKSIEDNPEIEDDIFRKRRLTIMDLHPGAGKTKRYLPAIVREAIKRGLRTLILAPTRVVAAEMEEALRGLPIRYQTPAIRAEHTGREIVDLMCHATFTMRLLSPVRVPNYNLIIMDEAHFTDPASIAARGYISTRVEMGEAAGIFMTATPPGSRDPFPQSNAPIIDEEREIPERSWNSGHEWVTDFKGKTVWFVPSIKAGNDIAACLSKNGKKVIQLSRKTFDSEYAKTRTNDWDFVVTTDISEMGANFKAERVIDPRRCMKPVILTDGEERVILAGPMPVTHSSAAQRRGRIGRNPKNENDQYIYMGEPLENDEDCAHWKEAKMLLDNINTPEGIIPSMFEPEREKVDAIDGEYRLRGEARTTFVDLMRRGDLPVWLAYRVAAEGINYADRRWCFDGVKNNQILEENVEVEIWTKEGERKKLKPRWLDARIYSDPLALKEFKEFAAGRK
T2 sequence (P29990 1346-1475 partner limits assumed): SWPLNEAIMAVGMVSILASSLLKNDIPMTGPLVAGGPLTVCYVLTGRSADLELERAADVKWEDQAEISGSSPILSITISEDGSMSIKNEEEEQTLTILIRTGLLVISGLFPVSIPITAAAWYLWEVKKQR

Take `NC(=O)c1cccc(NC(=O)[C@@H](NC(=O)C2COc3ccccc3C2)c2ccc(OCc3ccccc3)cc2)c1` (some centres unmarked) [compound 26, 26]: the IC50 in data set [1] was 16 µM. In addition, in data set [2], the inhibition at 12.5 µM turned out to be 77%. The EC50 in data set [3] stood at 6.8 µM. The inhibition at 50 µM in data set [4] came out at 88%. Besides, the CC50 in “in vitro” was above 50 µM.
